The species named for one series is Homo sapiens. Put plainly: Inhibition of EGFR T790/C797S mutant (unknown origin) at 10 uM relative to control.
In series [1] the test system is L02. Put plainly: Induction in apoptosis in human L02 cells assessed as necrotic cells at 1 uM incubated for 24 hrs by Annexin V-FITC/Propidium Iodide staining based flow cytometry analysis (reference value: 6.63 %). Type of series: toxicity, cell-based. Conditions: l02, 24 h. (In flow cytometry, cells or beads pass a laser one at a time.)
The test system of series [2] is NCI-H1975. The series can be described thus: Induction in apoptosis in human NCI-H1975 cells assessed as late apoptotic cells at 1 uM incubated for 24 hrs by Annexin V-FITC/Propidium Iodide staining based flow cytometry analysis (reference value: 4.46 %). Type of series: functional.
Series [3] concerns A549. Put plainly: Induction in apoptosis in human A549 cells overexpressing c-MET assessed as early apoptotic cells at 1 uM incubated for 24 hrs by Annexin V-FITC/Propidium Iodide staining based flow cytometry analysis (reference value: 7.27 %). Type of series: functional.
Series [4] concerns A549. Put plainly: Induction of cell cycle arrest in human A549 cells overexpressing c-MET assessed as accumulation of cells at G1/G0 phase at 1 uM incubated for 24 hrs by RNase A/propidium iodide staining based flow cytometric analysis (reference value: 49.24 %). Type of series: functional.
The test system of series [5] is NCI-H1975. The series can be described thus: Induction in apoptosis in human NCI-H1975 cells assessed as necrotic cells at 1 uM incubated for 24 hrs by Annexin V-FITC/Propidium Iodide staining based flow cytometry analysis (reference value: 1.42 %). Type of series: functional.
Series [6] is described as follows: Hemolytic activity in sheep erythrocytes at 64 ug/ml incubated for 2 hr by UV spectrophotometer relative to control. Type of series: toxicity, cell-based, Ovis aries, Erythrocyte. The note with it: at 64 µg/mL, read-out: Activity.
Series [7] deals with L02. Put plainly: Induction in apoptosis in human L02 cells assessed as early apoptotic cells at 1 uM incubated for 24 hrs by Annexin V-FITC/Propidium Iodide staining based flow cytometry analysis (reference value: 0.26 %). Type of series: toxicity, cell-based. Conditions: l02, 24 h.
Series [8] concerns A549. The series can be described thus: Induction in apoptosis in human A549 cells overexpressing c-MET assessed as viable cells at 1 uM incubated for 24 hrs by Annexin V-FITC/Propidium Iodide staining based flow cytometry analysis (reference value: 81.92 %). Type of series: functional. Conditions: read-out: Activity.
Series [9] in a line: Induction in apoptosis in human L02 cells assessed as viable cells at 1 uM incubated for 24 hrs by Annexin V-FITC/Propidium Iodide staining based flow cytometry analysis (reference value: 92.75 %). Type of series: toxicity, cell-based. Conditions: read-out: Activity.
Series [10] has as its system NCI-H1975. The series can be described thus: Induction in apoptosis in human NCI-H1975 cells assessed as viable cells at 1 uM incubated for 24 hrs by Annexin V-FITC/Propidium Iodide staining based flow cytometry analysis (reference value: 91.58 %). Type of series: functional. Conditions: read-out: Activity.
Series [11] relates to NCI-H1975. The series can be described thus: Induction in apoptosis in human NCI-H1975 cells assessed as early apoptotic cells at 1 uM incubated for 24 hrs by Annexin V-FITC/Propidium Iodide staining based flow cytometry analysis (reference value: 2.54 %). Type of series: functional.
Series [12] concerns A549. Put plainly: Induction in apoptosis in human A549 cells overexpressing c-MET assessed as late apoptotic cells at 1 uM incubated for 24 hrs by Annexin V-FITC/Propidium Iodide staining based flow cytometry analysis (reference value: 7.59 %). Type of series: functional.
The subject of series [13] is A549. The series can be described thus: Induction in apoptosis in human A549 cells overexpressing c-MET assessed as necrotic cells at 1 uM incubated for 24 hrs by Annexin V-FITC/Propidium Iodide staining based flow cytometry analysis (reference value: 3.22 %). Type of series: functional.
In series [14] the test system is L02. Put plainly: Induction in apoptosis in human L02 cells assessed as late apoptotic cells at 1 uM incubated for 24 hrs by Annexin V-FITC/Propidium Iodide staining based flow cytometry analysis (reference value: 0.36 %). Type of series: toxicity, cell-based. The note with it: l02, 24 h.
Series [15] deals with A549. Put plainly: Induction of cell cycle arrest in human A549 cells overexpressing c-MET assessed as accumulation of cells at S phase at 1 uM incubated for 24 hrs by RNase A/propidium iodide staining based flow cytometric analysis (reference value: 37.87 %). Type of series: functional.
Series [16] has as its target Hepatocyte growth factor receptor (Homo sapiens, UniProt P08581). The series can be described thus: biochemical.
Description: Inhibition of N-terminal GST tagged human recombinant c-Met (956 to end residues) expressed in baculovirus infected Sf9 cells using Poly (4:1 Glu, Tyr) as substrate incubated for 60 mins in presence of ATP by ADP-Glo luminescent assay
Another series deals with PC-9. The series can be described thus: Antiproliferative activity against human PC-9 cells overexpressing c-Met and EGFR assessed as reduction in cell viability incubated for 72 hrs by MTT assay. Type of series: functional, cell-based. Conditions: PC-9, 72 h.
Series [17] concerns A549. The series can be described thus: Antiproliferative activity against human A549 cells overexpressing c-Met and EGFR assessed as reduction in cell viability incubated for 72 hrs by MTT assay. Type of series: functional, cell-based. The note with it: A549, 72 h. (Formazan colour is commonly taken as a measure of viable cells.)
Series [18] concerns the target Epidermal growth factor receptor (Homo sapiens, UniProt P00533, L858R). Put plainly: biochemical.
The test system of series [19] is NCI-H1975. The series can be described thus: Antiproliferative activity against human NCI-H1975 cells overexpressing c-Met and EGFR assessed as reduction in cell viability incubated for 72 hrs by MTT assay. Type of series: functional, cell-based. The note with it: NCI-H1975, 72 h.
The target of series [20] is Epidermal growth factor receptor (Homo sapiens, UniProt P00533). Put plainly: biochemical.
Description: Inhibition of N-terminal GST tagged human recombinant EGFR (695 to end residues) expressed in baculovirus infected Sf9 cells using Poly (4:1 Glu, Tyr) as substrate incubated for 60 mins in presence of ATP by ADP-Glo luminescent assay

Some results are limits rather than exact numbers.

The values below come from ChEMBL document CHEMBL5537122, “Design, synthesis, and biological evaluation of 4-(2-fluorophenoxy)-7-methoxyquinazoline derivatives as dual EGFR/c-Met inhibitors for the treatment of NSCLC” (Eur J Med Chem, 2024).

Epidermal growth factor receptor (Homo sapiens, UniProt P00533, L858R), sequence (P00533 25-1210 L858R limits assumed): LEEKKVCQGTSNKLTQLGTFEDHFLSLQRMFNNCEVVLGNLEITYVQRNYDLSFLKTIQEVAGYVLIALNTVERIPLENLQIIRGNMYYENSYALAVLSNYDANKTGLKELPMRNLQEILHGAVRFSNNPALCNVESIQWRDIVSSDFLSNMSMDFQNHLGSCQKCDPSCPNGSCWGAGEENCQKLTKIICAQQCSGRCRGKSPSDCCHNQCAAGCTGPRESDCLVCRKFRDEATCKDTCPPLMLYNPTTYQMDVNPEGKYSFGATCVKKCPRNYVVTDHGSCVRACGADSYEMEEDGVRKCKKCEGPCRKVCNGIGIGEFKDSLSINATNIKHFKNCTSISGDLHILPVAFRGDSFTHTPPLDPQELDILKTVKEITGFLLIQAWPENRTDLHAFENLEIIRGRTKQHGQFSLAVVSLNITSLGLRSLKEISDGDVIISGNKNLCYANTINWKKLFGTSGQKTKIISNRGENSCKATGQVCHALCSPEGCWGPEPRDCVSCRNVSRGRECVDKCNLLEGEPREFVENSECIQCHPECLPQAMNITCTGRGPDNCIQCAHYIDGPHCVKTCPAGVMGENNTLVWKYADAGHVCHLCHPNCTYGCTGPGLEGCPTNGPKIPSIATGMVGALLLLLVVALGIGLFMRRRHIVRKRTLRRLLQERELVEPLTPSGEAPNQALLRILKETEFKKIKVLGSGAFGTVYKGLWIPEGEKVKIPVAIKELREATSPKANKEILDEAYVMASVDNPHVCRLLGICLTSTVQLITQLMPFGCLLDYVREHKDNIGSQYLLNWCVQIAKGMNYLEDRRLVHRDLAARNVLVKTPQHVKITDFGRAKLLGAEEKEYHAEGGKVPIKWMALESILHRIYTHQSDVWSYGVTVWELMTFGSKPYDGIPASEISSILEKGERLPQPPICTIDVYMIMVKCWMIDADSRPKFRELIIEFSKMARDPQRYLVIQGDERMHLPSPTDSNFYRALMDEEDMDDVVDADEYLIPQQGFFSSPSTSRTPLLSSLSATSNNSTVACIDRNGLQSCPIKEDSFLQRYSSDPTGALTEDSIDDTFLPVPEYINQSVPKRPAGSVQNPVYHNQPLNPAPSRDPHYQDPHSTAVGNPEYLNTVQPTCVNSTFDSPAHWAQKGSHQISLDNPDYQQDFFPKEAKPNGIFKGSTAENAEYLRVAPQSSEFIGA
Hepatocyte growth factor receptor, sequence (P08581 whole entry): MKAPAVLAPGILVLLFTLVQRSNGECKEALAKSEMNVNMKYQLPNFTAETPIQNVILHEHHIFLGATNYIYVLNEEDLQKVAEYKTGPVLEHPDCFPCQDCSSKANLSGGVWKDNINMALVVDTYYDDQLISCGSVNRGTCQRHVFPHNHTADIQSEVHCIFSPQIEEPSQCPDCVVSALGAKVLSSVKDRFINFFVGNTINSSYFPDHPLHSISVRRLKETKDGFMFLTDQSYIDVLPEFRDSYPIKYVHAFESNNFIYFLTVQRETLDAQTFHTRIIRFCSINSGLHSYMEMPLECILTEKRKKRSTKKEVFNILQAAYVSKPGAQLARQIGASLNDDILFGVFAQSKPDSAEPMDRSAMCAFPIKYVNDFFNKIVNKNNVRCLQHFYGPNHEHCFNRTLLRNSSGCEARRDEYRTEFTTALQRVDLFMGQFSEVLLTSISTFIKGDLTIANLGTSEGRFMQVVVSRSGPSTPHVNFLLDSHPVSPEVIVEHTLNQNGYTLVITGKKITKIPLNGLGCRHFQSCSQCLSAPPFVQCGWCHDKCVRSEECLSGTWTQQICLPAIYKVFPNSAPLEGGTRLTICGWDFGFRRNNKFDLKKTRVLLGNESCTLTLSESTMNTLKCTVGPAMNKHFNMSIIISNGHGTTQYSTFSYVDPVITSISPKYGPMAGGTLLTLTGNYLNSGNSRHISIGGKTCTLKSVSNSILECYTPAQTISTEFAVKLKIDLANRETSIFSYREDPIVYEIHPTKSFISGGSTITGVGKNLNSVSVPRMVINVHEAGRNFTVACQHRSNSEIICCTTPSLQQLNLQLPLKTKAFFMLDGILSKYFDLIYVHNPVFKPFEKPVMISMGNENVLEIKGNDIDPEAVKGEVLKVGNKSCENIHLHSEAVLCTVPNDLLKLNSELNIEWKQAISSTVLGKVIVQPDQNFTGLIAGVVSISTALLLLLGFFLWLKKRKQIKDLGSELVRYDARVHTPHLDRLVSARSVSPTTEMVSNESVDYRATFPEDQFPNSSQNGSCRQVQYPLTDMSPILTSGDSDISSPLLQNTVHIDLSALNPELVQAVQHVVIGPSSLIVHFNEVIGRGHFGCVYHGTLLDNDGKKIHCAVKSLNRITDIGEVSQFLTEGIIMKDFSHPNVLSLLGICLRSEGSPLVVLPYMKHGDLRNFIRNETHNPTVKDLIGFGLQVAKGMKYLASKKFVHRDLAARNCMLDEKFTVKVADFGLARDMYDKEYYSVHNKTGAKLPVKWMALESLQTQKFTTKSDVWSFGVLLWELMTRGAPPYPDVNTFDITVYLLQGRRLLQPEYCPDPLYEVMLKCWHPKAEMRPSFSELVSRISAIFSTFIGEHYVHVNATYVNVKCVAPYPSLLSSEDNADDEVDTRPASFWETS
Epidermal growth factor receptor (Homo sapiens, UniProt P00533), sequence (P00533 whole entry): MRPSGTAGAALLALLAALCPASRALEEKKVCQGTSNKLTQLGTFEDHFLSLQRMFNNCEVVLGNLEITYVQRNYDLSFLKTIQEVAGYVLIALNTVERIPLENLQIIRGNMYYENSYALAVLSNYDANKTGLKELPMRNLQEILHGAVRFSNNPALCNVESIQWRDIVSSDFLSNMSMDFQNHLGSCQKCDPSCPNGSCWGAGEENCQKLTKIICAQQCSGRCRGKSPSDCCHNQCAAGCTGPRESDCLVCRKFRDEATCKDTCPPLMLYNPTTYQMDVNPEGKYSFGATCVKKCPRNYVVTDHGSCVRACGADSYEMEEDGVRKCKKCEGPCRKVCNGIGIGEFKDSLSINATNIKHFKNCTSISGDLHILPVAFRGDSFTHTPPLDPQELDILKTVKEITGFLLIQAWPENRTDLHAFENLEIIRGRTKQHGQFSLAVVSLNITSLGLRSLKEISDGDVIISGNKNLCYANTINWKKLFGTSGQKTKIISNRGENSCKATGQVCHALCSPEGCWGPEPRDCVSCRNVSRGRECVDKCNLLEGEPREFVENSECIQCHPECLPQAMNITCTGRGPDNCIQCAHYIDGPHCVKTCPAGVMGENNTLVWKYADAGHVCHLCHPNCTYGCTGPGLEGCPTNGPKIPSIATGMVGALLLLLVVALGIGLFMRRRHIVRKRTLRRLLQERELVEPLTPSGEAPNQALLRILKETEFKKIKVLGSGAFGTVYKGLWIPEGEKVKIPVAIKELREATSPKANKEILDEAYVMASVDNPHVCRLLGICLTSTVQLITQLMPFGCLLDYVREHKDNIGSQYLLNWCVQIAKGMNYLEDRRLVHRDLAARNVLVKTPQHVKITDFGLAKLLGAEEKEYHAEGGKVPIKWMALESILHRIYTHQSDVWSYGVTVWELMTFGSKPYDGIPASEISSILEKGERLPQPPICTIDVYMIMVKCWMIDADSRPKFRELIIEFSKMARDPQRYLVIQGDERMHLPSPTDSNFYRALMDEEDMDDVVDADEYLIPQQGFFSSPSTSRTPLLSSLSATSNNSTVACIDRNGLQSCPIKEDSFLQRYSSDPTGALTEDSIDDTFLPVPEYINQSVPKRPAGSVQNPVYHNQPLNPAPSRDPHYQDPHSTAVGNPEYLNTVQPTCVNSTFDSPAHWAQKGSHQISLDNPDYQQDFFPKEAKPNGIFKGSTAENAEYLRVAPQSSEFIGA

A word on the inhibition: it is the share of the control response that was lost under treatment. For the compound `COc1cc2c(Oc3ccc(NC(=O)C4(C(=O)Nc5ccc(F)cc5)CC4)cc3F)ccnc2cc1OCCCN1CCOCC1`, the inhibition in the series listed under Homo sapiens was below 50%.

As to `CN(C)C/C=C/C(=O)Nc1cc2c(Nc3ccc(F)c(Cl)c3)ncnc2cc1O[C@H]1CCOC1` [AFATINIB], the Activity in the series on L02 [1] turned out to be 3.78%; in the series with NCI-H1975 [2], 6.17%; in the series with A549 [3], 9.36%; in the series with A549 [4] it was 52.24%; with NCI-H1975 [5], 1.88%; with L02 [7], 0.19%. In addition, the Activity was determined as 2.21% in the series on NCI-H1975 [11]; 12.21% in the series with A549 [12]; 5.8% in the series with A549 [13]; 0.26% in the series on L02 [14]; 36.86% in the series on A549 [15]. Besides, the hemolysis at 2 h, 64 ug/ml in series [6] was below 5%. Moreover, the viability at 1 µM in the series on A549 [8] was determined as 72.6%; with NCI-H1975 [10], 89.7%. Also, the viability at 24 h, 1 µM in series [9] stood at 95.8%.

In general, IC50 refers to the concentration at which inhibition is half-maximal. For the compound `CCCC(=O)Nc1cc2c(Oc3ccc(NC(=O)n4c(=O)c(-c5ccccc5)c(C)n4C)cc3F)cccc2cc1OC`, the IC50 is 0.00411 µM in series [16]; above 50 µM with PC-9; 10.2 µM with A549 [17]; above 10 µM in [18]; above 50 µM in the series on NCI-H1975 [19]; 4.21 µM in series [20].

`C=CC(=O)Nc1cc2c(Oc3ccc(NC(=O)CCCc4ccccc4)cc3F)ncnc2cc1OC`: the IC50 in series [16] stood at 0.658 µM; in the series on PC-9, 2.46 µM; in the series with A549 [17], 2.25 µM; in [18], 0.497 µM; in the series on NCI-H1975 [19] it was 1.34 µM; in series [20], 0.387 µM.

`CCC(=O)Nc1cc2c(Oc3ccc(NC(=O)CCCc4ccc(F)cc4)cc3F)ncnc2cc1OC`: the IC50 in series [16] was 0.354 µM; in the series on PC-9 it was 3.1 µM; with A549 [17], 3.68 µM; in series [18], 5.31 µM; in the series on NCI-H1975 [19], 1.31 µM; in series [20], 6.87 µM.

Consider `COc1cc2ncnc(Oc3ccc(NC(=O)CCCc4ccccc4)cc3F)c2cc1NC(=O)CCC(C)C`, for which the IC50 in [16] is 1.48 µM; in the series with PC-9, 33.7 µM; in the series with A549 [17], above 50 µM; in series [18], above 10 µM; in the series with NCI-H1975 [19], 13.7 µM; in series [20] it was above 10 µM.

On to `CCCC(=O)Nc1cc2c(Oc3ccc(NC(=O)CCCc4ccsc4)cc3F)ncnc2cc1OC`, for which the IC50 is 0.959 µM in [16]; 13.8 µM with PC-9; above 50 µM in the series on A549 [17]; above 10 µM in series [18]; above 50 µM in the series on NCI-H1975 [19]; above 10 µM in series [20].

For `CCCCC(=O)Nc1cc2c(Oc3ccc(NC(=O)CCCc4ccc(C)cc4)cc3F)ncnc2cc1OC`, the IC50 in [16] is 2 µM; in the series on PC-9, above 50 µM; with A549 [17] it was 6.22 µM; in [18], above 10 µM; with NCI-H1975 [19], above 50 µM; in [20] it was above 10 µM.

Regarding `CCC(=O)Nc1cc2c(Oc3ccc(NC(=O)CCCc4ccc(OC)cc4)cc3F)ncnc2cc1OC`, the IC50 in series [16] was 0.273 µM; with PC-9, 9.28 µM; in the series on A549 [17], 2.87 µM; in series [18], above 10 µM; with NCI-H1975 [19], 7.05 µM; in series [20], above 10 µM.

`CCC(=O)Nc1cc2c(Oc3ccc(NC(=O)NCCC4CCCCC4)cc3F)ncnc2cc1OC`: the IC50 is 0.143 µM in series [16]; above 50 µM with PC-9; 2.43 µM with A549 [17]; above 10 µM in [18]; 2.94 µM in the series on NCI-H1975 [19]; 4.69 µM in series [20].

For `CCCCC(=O)Nc1cc2c(Oc3ccc(NC(=O)CCCc4ccsc4)cc3F)ncnc2cc1OC`, the IC50 in series [16] was 1.56 µM; in the series on PC-9 it was above 50 µM; in the series on A549 [17], above 50 µM; in [18] it was above 10 µM; in the series with NCI-H1975 [19], 37.6 µM; in [20] it was above 10 µM.

As to `C/C=C/C(=O)Nc1cc2c(Oc3ccc(NC(=O)CCCc4ccc(OC)cc4)cc3F)ncnc2cc1OC`, the IC50 in [16] is 0.493 µM; in the series with PC-9, 8.17 µM; in the series on A549 [17] it was 6.43 µM; in [18], above 10 µM; in the series on NCI-H1975 [19], above 50 µM; in [20], above 10 µM.

Regarding `C=CC(=O)Nc1cc2c(Oc3ccc(NC(=O)CCCc4ccc(F)cc4)cc3F)ncnc2cc1OC`, the IC50 was 0.355 µM in series [16]; 4.56 µM with PC-9; 2.07 µM in the series on A549 [17]; 1.07 µM in [18]; 8.21 µM in the series with NCI-H1975 [19]; 0.782 µM in [20].

Turning to `CCCCC(=O)Nc1cc2c(Oc3ccc(NC(=O)CCCc4ccc(OC)cc4)cc3F)ncnc2cc1OC`, the IC50 in series [16] was 0.824 µM; in the series with PC-9, above 50 µM; with A549 [17], 29.8 µM; in series [18] it was above 10 µM; in the series on NCI-H1975 [19] it was 43.4 µM; in [20], above 10 µM.

As for `CCC(=O)Nc1cc2c(Oc3ccc(NC(=O)c4sc(-c5ccccc5)nc4C)cc3F)cccc2cc1OC`, the IC50 in series [16] is 0.0706 µM; in the series on PC-9, 2.94 µM; in the series with A549 [17], 2.35 µM; in series [18], above 10 µM; in the series with NCI-H1975 [19], 3.56 µM; in series [20], 3.9 µM.

On to `COc1ccc(CCCC(=O)Nc2ccc(Oc3ncnc4cc(OC)c(NC(=O)CCC(C)C)cc34)c(F)c2)cc1`, for which the IC50 was above 10 µM in [16]; above 50 µM with PC-9; above 50 µM with A549 [17]; above 10 µM in [18]; 10.5 µM in the series with NCI-H1975 [19]; above 10 µM in [20].

In the case of `C=CC(=O)Nc1cc2c(Oc3ccc(NC(=O)CCCc4ccc(C)cc4)cc3F)ncnc2cc1OC`, the IC50 in series [16] turned out to be 0.394 µM; in the series with PC-9, 7.67 µM; in the series with A549 [17], 5.21 µM; in [18], 1.47 µM; with NCI-H1975 [19], 0.43 µM; in [20], 1.79 µM.

As for `COc1cc2ncnc(Oc3ccc(NC(=O)CCCc4ccc(C)cc4)cc3F)c2cc1NC(=O)CCC(C)C`, the IC50 in series [16] is 3.07 µM; with PC-9, above 50 µM; with A549 [17], above 50 µM; in series [18] it was above 10 µM; in the series on NCI-H1975 [19], 27.5 µM; in series [20], above 10 µM.

Turning to `C/C=C/C(=O)Nc1cc2c(Oc3ccc(NC(=O)CCCc4ccc(F)cc4)cc3F)ncnc2cc1OC`, the IC50 in series [16] was 0.67 µM; in the series on PC-9, 2.31 µM; in the series with A549 [17], above 50 µM; in [18], 5.72 µM; in the series with NCI-H1975 [19], 4.78 µM; in [20], 4.54 µM.
